These are literature values, as cited in patent publication US20140378500A1, “METHODS FOR PREDICTING TUMOR REPONSE TO TARGETED THERAPIES” (20/20 Gene Systems, Inc., priority 2012, published 2014).

Structures are written as SMILES.

The series deals with advanced renal cell carcinoma (RCC). The conditions noted are these: cited from earlier work.

`CO[C@H]1C[C@@H]2CC[C@@H](C)[C@@](O)(O2)C(=O)C(=O)N2CCCC[C@H]2C(=O)O[C@H]([C@H](C)C[C@@H]2CC[C@@H](OC(=O)C(C)(CO)CO)[C@H](OC)C2)CC(=O)[C@H](C)/C=C(\C)[C@@H](O)[C@@H](OC)C(=O)[C@H](C)C[C@H](C)/C=C/C=C/C=C/1C` [TORISEL, Temsirolimus]: the “kidney cancer patients who benefit materially” value (kidney cancer patients, mTOR inhibitors) is on record as “less than 10%”. Moreover, the response rate entry (patients diagnosed with advanced RCC) is listed as “less than 10%”.
